In patent US20100144712A1 (priority 2007, published 2010):
Converted amounts (≈) assume the structure as drawn.

How the values were obtained:
Format in all cases: cell-based
[1] = system: Candida albican ATCC 90873; test: In vitro antifungal activity (MIC80), Candida albican ATCC 90873; conditions: Candida, ATCC90873; Table 2, ATCC 90873; read-out: Minimal inhibitory concentration (MIC80)
Protocol: (§1) In vitro antifungal activities of the inventive antifungal compounds were evaluated using test strains including Candida albican (ATCC 90873, 204276, 62342, 64124, 64550, 96901, MYA-573, MYA-574, MYA-575, MYA-576, MYA-1003) and Aspergillus fumigatus (ATCC 16424). Test samples and positive control samples were prepared by dissolving the inventive compounds and comparative compounds, i.e., amphotericin B, fluconazole and itraconazole, in DMSO, respectively, and each successively diluted with medium to obtain test and positive control solutions having test compound concentrations of 0.125 μg/ml to a maximum concentration not generating turbidity. Minimal inhibitory concentration (MIC80) of each compound was determined as the lowest concentration of the test compounds required to reduce growth by 80% relative to a control strain not treated.
(§2) 1) Test strain: Candida albican ATCC 90873, 204276, 62342, 64124, 64550, 96901, MYA-573, MYA-574, MYA-575, MYA-576, MYA-1003, and Aspergillus fumigatus ATCC 16424 were commercially obtained from The American Type Culture Collection (ATCC) and subcultured in CHEMON Co. Ltd. (amphotericin B was commercially purchased from Sigma, and fluconazole and itraconazole were prepared according to methods described in British Patent No. 2,099,818; and U.S. Pat. No. 4,267,179, respectively).
(§3) 2) Medium and culture condition: Candida albican was cultured in Sabourad Dextrose Agar, YM Agar or Potato Dextrose Agar according to ATCC information at a temperature of 37° C., 35° C., 30° C. or 25° C. Aspergillus fumigatus was cultured in Malt Extract Agar or Potato Dextrose Agar at a temperature ranging from 24 to 27° C.
(§4) 3) Preparation of test samples: the inventive compounds and comparative compounds were each diluted with DMSO to obtain 1 to 2 ml of a test sample in a concentration of 100-folds of the determining maximum concentration (256 μg/ml).
(§5) The test samples were each successively diluted with RPMI 1640 to obtain test solutions having concentrations of […] in a 12×75 mm sterilized disposable culture tube. The final concentration of DMSO was adjusted to […] (v/v).
(§6) 5) Preparation of strain solution and inoculation
(§7) Candida albican strains were each subcultured in Sabourad Dextrose Agar, YM Agar or Potato Dextrose Agar medium at 35° C. for 2˜3 days. In the case of yeasts, a single colony was taken from prominent colonies and suspended in 0.85% sterile physiological saline solution and the turbidity of the suspension was adjusted to 80˜82% at 530 nm, and then diluted 50-fold with RPMI 1640 medium to 1.0×10^3˜5.0×10^3 CFU/ml. The turbidity of fungi was adjusted to 80˜82% and the suspension was diluted 50-fold to […]. Aspergillus fumigatus strains were subcultured in Malt Extract Agar for 7˜10 days, and a single colony was taken from prominent colonies and suspended in 0.85% sterile physiological saline solution and the suspension was adjusted to 0.108 at 530 nm, and then diluted 1000-fold with RPMI 1640 medium to 0.4×10^2˜5×10^4 CFU/ml. The turbidity of fungi was adjusted to 80˜82% and the suspension was diluted 50-fold to 0.4102˜0.5104 CFU/ml.
(§8) The strain solutions thus obtained were each seeded into a sterilized 96-well microplate, 0.1 ml of each test solution were added thereto, and […] of alamarblue was treated to each well (Biosource, #DAL1100). This procedure was repeated 2 times.
(§9) Minimal inhibitory concentration (MIC80) of each compound was determined as the lowest concentration of the test compounds required to reduce growth by 80% relative to a control strain not treated.

[2] = system: Candida albican ATCC 96901; test: In vitro antifungal activity (MIC80), Candida albican ATCC 96901; conditions: Candida, ATCC96901; Table 2, ATCC 96901; read-out: Minimal inhibitory concentration (MIC80)
Protocol: as §1, §2, §3, §4, §5, §6, §7, §8, §9

[3] = system: Candida albican ATCC MYA-1003; test: In vitro antifungal activity (MIC80), Candida albican ATCC MYA-1003; conditions: Candida; Table 2, MYA 1003; read-out: Minimal inhibitory concentration (MIC80)
Protocol: as §1, §2, §3, §4, §5, §6, §7, §8, §9

[4] = system: Candida albican ATCC 62342; test: In vitro antifungal activity (MIC80), Candida albican ATCC 62342; conditions: Candida, ATCC62342; Table 2, 62342; read-out: Minimal inhibitory concentration (MIC80)
Protocol: as §1, §2, §3, §4, §5, §6, §7, §8, §9

[5] = system: Candida albican ATCC 64124; test: In vitro antifungal activity (MIC80), Candida albican ATCC 64124; conditions: Candida, ATCC64124; Table 2, 64124; read-out: Minimal inhibitory concentration (MIC80)
Protocol: as §1, §2, §3, §4, §5, §6, §7, §8, §9

[6] = system: Candida albican ATCC 64550; test: In vitro antifungal activity (MIC80), Candida albican ATCC 64550; conditions: Candida, ATCC64550; Table 2, 64550; read-out: Minimal inhibitory concentration (MIC80)
Protocol: as §1, §2, §3, §4, §5, §6, §7, §8, §9

[7] = system: Candida albican ATCC MYA-573; test: In vitro antifungal activity (MIC80), Candida albican ATCC MYA-573; conditions: Candida; Table 2, MYA 573; read-out: Minimal inhibitory concentration (MIC80)
Protocol: as §1, §2, §3, §4, §5, §6, §7, §8, §9

[8] = system: Candida albican ATCC MYA-574; test: In vitro antifungal activity (MIC80), Candida albican ATCC MYA-574; conditions: Candida; Table 2, MYA 574; read-out: Minimal inhibitory concentration (MIC80)
Protocol: as §1, §2, §3, §4, §5, §6, §7, §8, §9

[9] = system: Candida albican ATCC MYA-575; test: In vitro antifungal activity (MIC80), Candida albican ATCC MYA-575; conditions: Candida; Table 2, MYA 575; read-out: Minimal inhibitory concentration (MIC80)
Protocol: as §1, §2, §3, §4, §5, §6, §7, §8, §9

[10] = system: Candida albican ATCC MYA-576; test: In vitro antifungal activity (MIC80), Candida albican ATCC MYA-576; conditions: Candida; Table 2, MYA 576; read-out: Minimal inhibitory concentration (MIC80)
Protocol: as §1, §2, §3, §4, §5, §6, §7, §8, §9

In the case of `C[C@@H](N1CCN(c2nc3cc(Cl)ccc3o2)CC1)[C@](O)(Cn1cncn1)c1ccc(F)cc1F` [Example 5, (2R,3R)-3-(4-(5-chlorobenzooxazol-2-yl)piperazin-1-yl)-2-(2,4-difluorophenyl)-1-(1H-1,2,4-triazol-1-yl)butan-2-ol], the MIC80 [1] is reported as 0.125 mg/L (≈ 0.256 µM), the MIC80 [2] is reported as 2 mg/L (≈ 4.09 µM) and the MIC80 [3] is reported as over 128 mg/L. The MIC80 [4] was 0.125 mg/L (≈ 0.256 µM), the MIC80 [5] was 2 mg/L (≈ 4.09 µM) and the MIC80 [6] was 0.5 mg/L (≈ 1.02 µM). For the same compound, the MIC80 [7] was 0.25 mg/L (≈ 0.511 µM), the MIC80 [8] was 0.5 mg/L (≈ 1.02 µM) and the MIC80 [9] was 0.125 mg/L (≈ 0.256 µM). For the same compound, the MIC80 [10] was 0.125 mg/L (≈ 0.256 µM).

With `C[C@@H](N1CCN(c2nc3ccc(N4CCCCC4)cc3s2)CC1)[C@](O)(Cn1cncn1)c1ccc(F)cc1F` [Example 10, (2R,3R)-2-(2,4-difluorophenyl)-3-(4-(6-(piperidin-1-yl)benzothiazol-2-yl)piperazin-1-yl)-1-(1H-1,2,4-triazol-1-yl)butan-2-ol] the MIC80 [1] was 0.125 mg/L (≈ 0.226 µM), the MIC80 [2] was 4 mg/L (≈ 7.22 µM) and the MIC80 [3] was over 128 mg/L. For the same compound, the MIC80 [4] was 0.125 mg/L (≈ 0.226 µM), the MIC80 [5] was 4 mg/L (≈ 7.22 µM) and the MIC80 [6] was 0.5 mg/L (≈ 0.903 µM). For the same compound, the MIC80 [7] was 0.5 mg/L (≈ 0.903 µM), the MIC80 [8] was 0.5 mg/L (≈ 0.903 µM) and the MIC80 [9] was 0.125 mg/L (≈ 0.226 µM). For the same compound, the MIC80 [10] was 0.125 mg/L (≈ 0.226 µM).

`C[C@@H](N1CCN(c2nc3ccc(N(C)CCN4CCOCC4)cc3s2)CC1)[C@](O)(Cn1cncn1)c1ccc(F)cc1F` [Example 13, (2R,3R)-3-(4-(6-(N-methyl-N-(2-morpholinoethyl)amino)benzothiazol-2-yl)piperazin-1-yl)-2-(2,4-difluorophenyl)-1-(1H-1,2,4-triazol-1-yl)butan-2-ol] showed an MIC80 [1] of 0.125 mg/L (≈ 0.204 µM), an MIC80 [2] of 8 mg/L (≈ 13.1 µM) and an MIC80 [3] of 32 mg/L (≈ 52.2 µM). It also gave an MIC80 [4] of 0.25 mg/L (≈ 0.408 µM), an MIC80 [5] of 2 mg/L (≈ 3.26 µM) and an MIC80 [6] of 0.5 mg/L (≈ 0.816 µM). The MIC80 [7] was 0.25 mg/L (≈ 0.408 µM), the MIC80 [8] was 16 mg/L (≈ 26.1 µM) and the MIC80 [9] was 0.125 mg/L (≈ 0.204 µM). The MIC80 [10] was 0.125 mg/L (≈ 0.204 µM).

For `C[C@@H](N1CCCN(c2nc3ccccc3o2)CC1)[C@](O)(Cn1cncn1)c1ccc(F)cc1F` [Example 15, (2R,3R)-3-(4-(benzooxazol-2-yl)-1,4-diazepan-1-yl)-2-(2,4-difluorophenyl)-1-(1H-1,2,4-triazol-1-yl)butan-2-ol], the MIC80 [1] was 0.125 mg/L (≈ 0.267 µM), the MIC80 [2] was 16 mg/L (≈ 34.2 µM) and the MIC80 [3] was over 128 mg/L. The MIC80 [4] was 0.25 mg/L (≈ 0.534 µM), the MIC80 [5] was 8 mg/L (≈ 17.1 µM) and the MIC80 [6] was 2 mg/L (≈ 4.27 µM). For the same compound, the MIC80 [7] was 0.5 mg/L (≈ 1.07 µM), the MIC80 [8] was 1 mg/L (≈ 2.13 µM) and the MIC80 [9] was 0.125 mg/L (≈ 0.267 µM). For the same compound, the MIC80 [10] was 0.125 mg/L (≈ 0.267 µM).

`C[C@@H](N1CCN(c2cccc(OCc3ccccc3)n2)CC1)[C@](O)(Cn1cncn1)c1ccc(F)cc1F` [Example 20, (2R,3R)-3-(4-(6-(benzyloxy)pyridin-2-yl)piperazin-1-yl)-2-(2,4-difluorophenyl)-1-(1H-1,2,4-triazol-1-yl)butan-2-ol] gave an MIC80 [1] of 0.125 mg/L (≈ 0.24 µM), an MIC80 [2] of 2 mg/L (≈ 3.84 µM) and an MIC80 [3] of over 128 mg/L. The MIC80 [4] was 1 mg/L (≈ 1.92 µM), the MIC80 [5] was 8 mg/L (≈ 15.4 µM) and the MIC80 [6] was 1 mg/L (≈ 1.92 µM). For the same compound, the MIC80 [7] was 0.5 mg/L (≈ 0.96 µM), the MIC80 [8] was 1 mg/L (≈ 1.92 µM) and the MIC80 [9] was 0.25 mg/L (≈ 0.48 µM). It also gave an MIC80 [10] of 0.25 mg/L (≈ 0.48 µM).
